For `COC(=O)c1cc2cc(-c3ccc(OC)cc3)ccc2o1`, the melting point lay within 160 to 162 °C.

As for `CC(=O)NC[C@H]1CN(c2ccc(N3CCC(n4cccc4)CC3)c(F)c2)C(=O)O1`, the melting point is 208 to 210 °C. `O=C(Nc1ccccc1)Nc1ccnc(O)c1` showed a melting point of 198 to 200 °C. `Cc1cn(-c2nccc3[nH]c(=O)ccc23)cn1` gave a melting point of 257 to 259 °C.

Take `O=C1CNc2cc(Br)c(F)cc2N1`: the melting point fell in the range of 214 to 216 °C. Then `Cc1ccc(C)n1Nc1ccc(N2CCSCC2)nn1`, with 203 °C; and `CN(C)C1(c2ccccc2)CCC(CNC(=O)N2CCCC(c3c[nH]c4ccccc34)C2)CC1` (centres undefined), with 95 to 99 °C. Then `O=C(O)c1cc(-c2ccccc2)c2ccsc2c1`, with 222 °C; and `CO/C=C(/C(=O)OC)c1ccccc1Oc1cc(OCc2ccc([N+](=O)[O-])cc2)ncn1`, with 96 to 98 °C; and `Cc1c(Br)cccc1N1Cc2cc(C(C)(C)C)sc2C1=O`, with 185 to 186 °C. Then `C#Cc1ccc2c(c1)C(=O)N(C(C)(C)C)CC(=O)N2`, with 216 to 219 °C.

Turning to `CCOC(=O)CNC(=O)N1CCn2c(c(C(N)=O)c(Cl)c2-c2ccccc2)C1`, the melting point lay in the range of 94 to 97 °C.

Compound `CCCCCCCCCCCCNC(=O)OCc1ccc(OC(C)=O)c(OC)c1` showed a melting point of 54 to 56 °C.

In the case of `Cn1c(=O)oc2cc(CCBr)ccc21`, the melting point was in the range of 104 to 106 °C. Then `CC(/C=C/c1ccccc1-c1ccc2c(c1)C(C)(C)CCC2(C)C)=C\C(=O)O`, with 178 to 179 °C; and `Cn1nc(-c2cnc(N)nc2-c2ccc(F)c(F)c2)ccc1=O`, with 231 °C; and `CCCNc1nc(N)cc(Cl)n1`, with 92 to 94 °C. Then `S=C=Nc1ccc2sc(-c3cccs3)nc2c1`, with 147 to 149 °C; and `C[C@@H]1CN(c2ccc3nc(-c4ccc(F)cc4)c(-c4ccnc5[nH]ccc45)n3n2)CCN1`, with 285 to 287 °C. Then `CCCCCC(CC(=O)Nc1cc(CCC(=O)O)ccc1C(C)(C)C)c1c(OC)cccc1OC` (centres undefined), with 52 to 53 °C. `CCCCn1c(-c2ccccc2)nc(Cl)c1CC(=O)O` registered a melting point of 189 to 190 °C. `CN(C[C@H]1CC[C@H](C(=O)O)CC1)c1ncc(Br)cn1`: the melting point lay in the range of 111 to 113 °C. Then `O=C(NCCN1C=CC(c2ccccc2)=CC1)c1ccccc1S(=O)(=O)O`, with 272 to 274 °C. Then `CC(C)(C)c1nc(C=NO)ncc1O`, with 205 to 220 °C.

`COc1cc(OC)c2c3c(n(Cc4ccccc4)c2c1)CCCC3C(N)=O` (centres undefined) displayed a melting point of 190 to 192 °C.

With `COc1cc(N)c2ncccc2c1OCC(F)(F)F`, the melting point is 91 to 94 °C. Then `Fc1ccc(Nc2c3ccccc3nc3ccccc23)cc1`, with 184 to 196 °C; and `Cn1ccnc1Sc1c(N)cccc1Cl`, with 123 to 124 °C; and `CCOc1cc(C(=CC#N)c2ccc3c(c2)nnn3C)ccc1OC`, with 180 to 182 °C.

Turning to `COc1cc(C)c(C(O)c2c(O)ccc(Cl)c2C)c(OC)c1OC` (centres undefined), the melting point lay in the range of 140 to 142 °C. Then `COC(=O)C1=C(C)NC(C)=C(C(=O)OCCCCCCCC#N)C1c1cccc([N+](=O)[O-])c1` (centres undefined), with 151 to 152 °C; and `O=[N+]([O-])c1cc(-c2ncnc(C(F)F)c2Cl)c(Cl)cc1Cl`, with 107 to 109 °C. Then `COc1ccc(C(NCCCc2ccccc2)c2cccc(Nc3c(N)c(=O)c3=O)c2)cc1` (centres undefined), with 178 to 180 °C; and `NS(=O)(=O)c1ccc(-c2c(F)c(F)c(F)c(F)c2-c2ccc(F)cc2)cc1`, with 202 to 203 °C. Then `COc1cccc(/C(=C\C=C\C(=O)NCCCCc2cccnc2)c2cccc(F)c2)c1`, with 96 to 98 °C; and `CCn1c(C)nc2cc(C(F)(F)F)cc(N)c21`, with 144 to 145 °C; and `CCc1ccc(SCCC(=O)O)cc1`, with 59 to 60 °C. For the compound `CN(C)c1ccc(C2CCc3ccccc3O2)cc1` (centres undefined), the melting point is 77 to 78 °C. Then `CN(C)CCn1c(=O)c2ccc(N)cc2c2cnc3cc4c(cc3c21)OCO4`, with 300 to 301 °C; and `O=C1c2ccccc2C(O)N1CCCCSc1ccncc1` (centres undefined), with 144 to 145 °C. Then `O=C1c2cccnc2N(c2ccccc2)C(=O)C12CCCCO2` (centres undefined), with 213 to 215 °C. Regarding `Cc1cc(Cc2ccccc2)c(NCc2ccccn2)c(=O)n1CC(=O)O`, the melting point worked out at 63 °C. Then `CCCc1oc2ccc([N+](=O)[O-])cc2c1C(=O)c1ccc(OC)cc1`, with 73 °C; and `CCOC(=O)C1(n2cc(Br)cc2C(=O)C(Cl)(Cl)Cl)CC(=O)NC1=O` (centres undefined), with 196 to 198 °C. Then `Cc1cc(Cl)cc(C(=O)NC2(C)CSC2)c1NC(=O)c1cc(C(F)(F)F)nn1-c1ncccc1Cl`, with 238 to 241 °C. Then `CCCN(C1CC(C)(C)Oc2ccc(OCCOC)cc21)S(=O)(=O)CC` (centres undefined), with 78 to 80 °C; and `COc1cccc2cc(C(=O)Oc3ccc(Cl)cn3)c(=O)oc12`, with 203 to 204 °C; and `Nc1ncc(Sc2ccc([N+](=O)[O-])cc2)s1`, with 162 to 164 °C. In turn, `C[C@@H](NC(=O)c1c[nH]c2ncc(-c3nn(C)c4cc(Cl)cc(F)c34)nc12)C(=O)N1CC(C#N)C1` had a melting point of 267 to 268 °C. Then `CC(C)N(CCN1C(=O)/C(=N/NC(N)=O)c2ccccc21)Cc1ccccc1`, with 193 to 194 °C; and `CC(Oc1ncn(-c2ccc(C(F)(F)F)cc2)n1)C(=O)O` (centres undefined), with 215 to 218 °C; and `COCCOc1cc(OCCN2CCCC2)c2c(=O)[nH]c(-c3cc(C)nc(C)c3)nc2c1`, with 60.4 to 62.3 °C. Consider `CC(=O)OC1CSC(Oc2cccc3conc23)C(OC(C)=O)C1OC(C)=O` (centres undefined), for which the melting point was 157 °C. Compound `N#Cc1ccccc1NC(=O)c1snc(Cl)c1Cl` registered a melting point of 191 to 193 °C. Then `N#Cc1c(Br)c(Br)n(C#N)c1Br`, with 195 to 198 °C; and `CCOC(=O)c1cnc2c(cnn2-c2ccccc2)c1O`, with 149 to 150 °C.

Compound `O=C(CCc1c(C=C2C(=O)Nc3ccccc32)[nH]c2c1CCCC2)NCCN1CCOCC1` registered a melting point of 256 to 258 °C. Turning to `Cc1cc2c(cc1Cl)nc(Br)n2[C@@H]1OC[C@@H](O)[C@@H](O)[C@H]1O`, the melting point amounted to 150 °C.

For the compound `ON=C1OC2C=CC1CC2` (centres undefined), the melting point lay within 153 to 154 °C. `O=c1ccsc2c3ccccc3n(CCN3CCOCC3)c12` yielded a melting point of 136 to 137 °C. Then `COC(=O)c1c(F)cc(OCCNC(=O)C2Cc3ccccc3N2S(=O)(=O)c2ccc(-c3ccc(F)cc3Cl)cc2)cc1F` (centres undefined), with 68 to 74 °C; and `C[C@H](COc1ccc(C=C2SC(=S)N(CC(=O)O)C2=O)cc1O[C@@H](c1ccccc1)C(F)(F)F)c1ccccc1`, with 73 to 80 °C.

As for `Clc1ccc(C(Cn2ccnc2)OCc2cc(Cl)nc3ccccc23)c(Cl)c1` (centres undefined), the melting point is 180 to 181 °C. Then `Nc1ncnc2c1c(-c1cccc(O)c1)cn2-c1cccc(OCCCn2ccnc2)c1`, with 120 to 122 °C; and `Cc1nc(C)c(-c2cccc(OC3SCC(O)C(O)C3O)c2)s1` (centres undefined), with 158 to 164 °C. Then `Fc1ccc(-c2ncn(C3CCNCC3)c2-c2ccnc(Oc3cccc(C(F)(F)F)c3)n2)cc1`, with 137 to 138 °C; and `CCc1cn(C2CC(O)C(CCC(O)C(C)Oc3ccc(Cl)cc3Cl)O2)c(=O)[nH]c1=O` (mixture of isomers), with 108 to 111 °C; and `CC(C)(C)OC(=O)N1CCn2c(c(C(N)=O)c(Cl)c2C2CC2)C1`, with 102 to 104 °C. Then `CONC(=O)Nc1ccc(-c2sc3c(c2CN(C)C(C)c2ccccn2)c(=O)n(-c2ccccn2)c(=O)n3Cc2c(F)cccc2F)cc1` (centres undefined), with 143 to 144 °C; and `COc1ccc(-c2nnc(N3CCC(O)CC3)nc2-c2ccc(OC)cc2)cc1`, with 105 to 108 °C; and `O=C(NC(=O)c1c(F)cccc1F)Nc1ccc(Cl)c(C(F)(F)F)c1`, with 220 °C. Consider `CC1=NC(=NOC(=O)NC2CC2)SC1(C)C`, for which the melting point was 86 to 89 °C. `CCOC(=O)[C@H](CCc1ccccc1)N[C@@H](C)C(=O)N1N=C(C(C)(C)C)S[C@H]1C(=O)O`: the melting point fell in the range of 165 to 168 °C. Then `Cc1nnsc1C(=O)Nc1ccc(-n2nc(C(F)(F)F)cc2C(F)(F)F)c(C(F)(F)F)c1`, with 134 to 136 °C; and `CCNc1nc2ccccc2n2c(C(C)C)nnc12`, with 209 to 211 °C; and `COc1ccc(NCCCOc2ccc3ccccc3c2)cc1`, with 110 °C. Then `CC(=O)Nc1cccc2c1C(=O)OC2=O`, with 180 to 183 °C.

`COC(=O)c1ccc(OC2CCOC2=O)c([N+](=O)[O-])c1` (centres undefined) showed a melting point of 99 to 101 °C. Then `CCOC(=O)c1n[nH]c(C(=O)OCC)c1C(O)c1ccc(Cl)cc1[N+](=O)[O-]` (centres undefined), with 60 °C. Then `CCC1C(=O)Nc2ccc(Br)cc21` (centres undefined), with 118 to 120 °C; and `CCOC(=O)c1cc2cccc(NS(=O)(=O)c3ccsc3C(=O)OC)c2[nH]1`, with 173 to 174 °C. Then `CC(C)(C)OC(=O)Nc1cc(Br)cc(C(F)(F)F)c1`, with 113 to 115 °C; and `CCCOc1cc(OC)cc(O)c1C(=O)C=Cc1ccc(OC)cc1`, with 117 °C; and `COc1cc(-c2ccc(O)c(C3(C)CCCCC3)c2)cc(CC2SC(N3CCCC3)=NC2=O)c1OC` (centres undefined), with 227 to 230 °C. `CCCCOc1c(CNC(=O)OC(C)(C)C)n(CC2CC2)c(=O)c2ccc(O)cc12` displayed a melting point of 164 to 166 °C. Turning to `CC(=O)NC[C@H]1CN(c2ccc(C(=O)c3cnc4ccc(Cl)nn34)cc2)C(=O)O1`, the melting point was 194 to 196 °C. Then `Cc1cc(SC2=C(O)CC(CCc3ccc(O)cc3)(C3CCCCC3)OC2=O)c(C(C)(C)C)cc1OS(=O)(=O)c1ccccc1` (centres undefined), with 180 °C. Consider `O=[N+]([O-])c1ccc(F)cc1OCc1ccccc1`, for which the melting point was 52 to 54 °C. Then `c1ccc(-c2nsc3nc4ccccc4n23)nc1`, with 173 to 174 °C.

The values above are taken from a melting point compilation (Tetko et al.; mined from patent text by program, amines drawn as free bases though some values may be those of a salt).
